Like-named read-outs stand apart in the source and are kept apart here.
Key:
ATXN3 protein = test: In vitro cell test: GFP-ATXN3 protein aggregation/expression in transfected cells by fluorescence microscopy; assay type: cell-based, human; conditions: pEGFP-C1-Ataxin3Q84 transfected HEK 293T or neural stem cells; 5 µg/ml for 24 hours; versus untreated groups; Figure 1
Method: In this experiment, the effects of BP and ligustilide on the protein expression level of SCA3 protein were analyzed. Frist, pEGFP-C1-Ataxin3Q84 plasmid (i.e., a plasmid comprising Ataxin gene with abnormal CAG repeat number (84Q)) containing green fluorescent protein or pEGFP-C1-Ataxin3Q28 plasmid (i.e., a plasmid comprising Ataxin gene with normal CAG repeat number (28Q)) (Addgene company, U.S.) was transfected into human embryonic kidney (HEK) cells 293T (Bioresource Collection and Research Center, Taiwan) or neural stem cells (NSC). The cells were then cultured in a DMEM medium (Dulbecco's modified Eagle's medium, Thermo) containing 10% fetal bovine serum (Gibco), and incubated in an incubator with 5% CO2 at 37°C. Then, the cells were treated with 5 µg/ml BP (A10353, purchased from Alfa Aesar, U.S.; with a purity of 95%) or ligustilide (5393-015M1, purchased from Pharmaron, China) for 24 hours. The protein aggregation of GFP-ATXN3 protein in the cells of each group was observed by a fluorescence microscopy. Wild type cells and cells transfected with green fluorescent protein (GFP) were used as the control group.

motor neurons = test: Confocal microscopy test of motor neurons in zebrafish injected with ATXN3 MO; assay type: in vivo; conditions: ATXN3 MO in combination with 250 mg/kg BP; after 48 hours; Figure 4
Method: Zebrafish eggs were micro-injected with 300 nM/µl ATXN3 MO, 250 mg/kgBP, or ATXN3 MO in combination with 250 mg/kgBP, 125 mg/kg BP or 62.5 mg/kgBP. After 48 hours, the zebrafishes were enclosed in glass slides. The motor neurons in the living body were recorded by a confocal fluorescence microscopy.

Purkinje cells = test: Immunohistochemistry staining of cerebellar slices of SCA3 mice; assay type: in vivo; conditions: cerebellum slices; BP 100 or 500 mg/kg/bid, ligustilide 100 mg/kg/bid; sacrificed at 20 and 24 weeks; versus untreated and olive oil groups; Figure 7
Method: (§1) The MJD84.2 transgenic mice (i.e., the mice with modified ATXN3 gene) of eight weeks of age were randomly divided into five groups, with six mice in each group. The mice were treated with the following conditions: (1) untreated group; (2) treated with olive oil; (3) treated with 100 mg/kg/bid of BP; (4) treated with 500 mg/kg/bid of BP; (5) treated with 100 mg/kg/bid of ligustilide. Then, the mice were sacrificed at the age of 20 weeks and 24 weeks. Cerebellar slices staining and tissue protein extraction were performed (see Example 5). Whole brain tissue of the mice was fixed overnight with 3.7% formalin and embedded in paraffin. The samples were sectioned (4 µm) by using a Quanto kit (Thermo, USA) and mounted on a microscope slide.

[1] = Safe dose test (toxicity of BP to zebrafish, survival rate); conditions: in vivo, after 48 hours, 28.5°C, Figure 2, read-out: survival rate of the zebrafishes
Method: In this experiment, the zebrafishes that were used as the animal models in the experimental group were Tg (HuC:GFP), which is characterized by its primary sensory neurons (Rohon-Beard cells) that can produce fluorescence. The zebrafishes used in the control group were wild type zebrafishes. All of the zebrafishes were provided by TZCAS (Taiwan Zebrafish Core Facility at Academia Sinica, Taiwan) and TZCF (Taiwan Zebrafish Core Facility, Taiwan). First, the toxicity of BP to zebrafish was tested by injecting different dose of BP to zebrafishes. The zebrafishes were then kept at 28.5°C. After 48 hours, the survival rate of the zebrafishes was observed.

MJD84.2 transgenic mice [2] = test: Local motor test in MJD84.2 transgenic mice (SCA3 mice); assay type: in vivo; conditions: BP 100 or 500 mg/kg/bid, ligustilide 100 mg/kg/bid, versus untreated group and olive oil group; for total moving distance: Figure 5A; for moving times: Figure 5B; for moving time: Figure 5C
Method: (§2) MJD84.2 transgenic mice (i.e., the mice being transfected with ATXN3 gene with human 84 CAG repeat sequence, hereinafter referred to as "SCA3 mice") were used in this experiment. MJD84.2 transgenic mice were an animal model used for studying spinal cerebellar atrophy.
(§3) The MJD84.2 transgenic mice of […] were randomly divided into five groups, each group had six mice. The mice were treated with the following conditions for two weeks: (1) untreated group; (2) treated with olive oil (i.e., only treated with the adjuvant); (3) treated with 100 mg/kg/bid (bis in die) of BP; (4) treated with 500 mg/kg/bid of BP; (5) treated with 100 mg/kg/bid of ligustilide. The wild type mice (WT) was used as a control group. After 2 weeks, local motor and rotarod test were conducted.
Local motor test was performed to test the exercise ability of mice. 10-week-old mice were tested on rotarod once every three weeks. Then, the mice were placed in a transparent acrylic box 2 hours and were free to move. A behavioral test was conducted for 1 hour by using VersaMax 420 (AccuscanInstrumentsInc, USA), and the data was analyzed by statistical methods.

zebrafish = test: Behavioral test in zebrafish injected with ATXN3 MO (tail stimulation); assay type: in vivo; conditions: Figure 3
Method: Morpholinos (MO) was produced by modifying the structure of a fragment of DNA, which can block protein translation process of mRNA to inhibit the expression of a target protein. The ATXN3 MO used in this experiment has a sequence of 5'-[…]-3' (SEQ ID NO. : 1), and the standard used in the control group is 5'-[…]-3' (SEQ ID NO. : 2) (hereinafter referred to as "Ct MO"). Before injection, the MO was dissolved in ddH2O, stored at -20°C for used. Zebrafish eggs were micro-injected within about one hour after birth. After 21 to 48 hours post fertilization (hpf), the zebrafish eggs were micro-injected with ATXN3 MO or ATXN3 MO in combination with 250 mg/kg BP, 125 mg/kg BP or 62.5 mg/kg BP. After 48 hours, the fish tails were stimulated by tips, and the number of stimulation causing movement of the fish tails was measured.

MJD84.2 transgenic mice [3] = test: Rotarod test in MJD84.2 transgenic mice (SCA3 mice); assay type: in vivo; conditions: BP 100 or 500 mg/kg/bid, ligustilide 100 mg/kg/bid; versus untreated group and olive oil group; Figure 6
Method: as §2, §3
Rotarod test was performed to test the balance and grip ability of mice. The mice were given practice two weeks before the first behavioral test. The experiment was conducted using an IITC rotarod (IITC Life Science Inc, USA). 10-week-old mice were tested on a rotarod once every three weeks. The test condition was set as a linear acceleration from 4 to 40 rpm within 300 seconds. The time (sec) that the mice fell from the rotarod (i.e., latency to fall) was recorded. […] After the rotarod test, the body weight of the mice were recorded. […]

ubiquitin = test: Western blotting of cerebellum tissue of SCA3 mice, anti-ubiquitin antibody; assay type: in vivo; conditions: mice treated with BP, versus untreated and olive oil groups, Figure 9
Method: as §1
(§4) The cerebellums of the mice sacrificed in example 4 were separated from the whole brain, and the proteins in the cerebellums were extracted. The purified proteins were analyzed by Western blotting assay using an anti-ubiquitin antibody and an anti-calbindin antibody, respectively, to determine the changes in the protein expression level of ubiquitin and calbindin in the cerebellum tissue of SCA3 mice in each group. β-actin was used as an internal control group.

calbindin = test: Western blotting of cerebellum tissue of SCA3 mice, anti-calbindin antibody; assay type: in vivo; conditions: BP 100 or 500 mg/kg/bid, ligustilide 100 mg/kg/bid, versus untreated and olive oil groups, Figure 8
Method: as §1, §4

## CCCC=C1OC(=O)c2ccccc21 [BP, n-butylidenephthalide]
ATXN3 protein
  fluorescent signal of Ataxin3Q84: significantly lower
Motor neurons
  number of motor neurons: can maintain the number of motor neurons
Purkinje cells
  number of Purkinje cells: significantly higher
[1]; 50 mg/kg BP injected
  survival at 48 h: > 75%
[1]; 250 mg/kg BP injected
  survival at 48 h: > 75%
[1]; 500 mg/kg BP injected
  survival at 48 h: 50%
MJD84.2 transgenic mice [2]
  total moving distance: higher
  moving times: higher
  moving time: higher
zebrafish; 250 mg/kg BP compared with the other BP doses
  restoring the behavioral ability of the diseased zebrafishes: the most obvious effect
zebrafish; ATXN3 MO in combination with 250, 125 or 62.5 mg/kg BP, after 48 hours, versus ATXN3 MO alone
  amount of stimulation-caused movement of fish tails: restored (i.e., decreased)
MJD84.2 transgenic mice [3]
  balance and grip ability (latency to fall): better
ubiquitin
  content of the ubiquitin ubiquitination proteins: significantly higher
calbindin
  protein expression level of calbindin: significantly higher

## CCCC=C1OC(=O)C2=C1CCC=C2 [ligustilide, 3-butylidene-4,5-dihydrophthalide]
ATXN3 protein
  fluorescent signal of Ataxin3Q84: significantly lower
Purkinje cells
  number of Purkinje cells: significantly higher
MJD84.2 transgenic mice [2]
  total moving distance: higher
  moving times: higher
  moving time: higher
MJD84.2 transgenic mice [3]
  balance and grip ability (latency to fall): better
calbindin
  protein expression level of calbindin: significantly higher

— EP3165222A1, “USE OF PHTHALIDE COMPOUND” (Everfront Biotech Inc., priority 2014, dated 2016)
